Test [1] relates to trichomonal hydrolases. In words: Experiment 1: hydrolysis of substrates by trichomonal hydrolases at pH 2.8-9.2, with or without normal vaginal fluid supernatant (NVS), absorbance 540 nm. The test is classed as biochemical, Trichomonas vaginalis. The settings on record: for Absorbance Readings: 540 nm. The protocol:
Assays without normal vaginal fluid supernatant present: Two sets of six wells in a microtiter plate were prepared, with each well containing 80 μL of one of the six 200 mM buffers, 10 μL of water and 10 μL of diluted trichomonal hydrolases. Ten μL of ZRR-MNA was added to each well in the first set of wells, and 10 μl of VLK-MNA was added to each well in the second set of wells. After fifteen minutes, 100 μl of indicator solution was added to each well. Because a high pH can reduce the intensity of color produced by the indicator solution, 50 μl of 100 mM acetic acid buffer, pH 3.7, was added to each well except the pH 2.8 wells (water was substituted for the acetic acid in those wells). After another fifteen minutes, the absorbance of the solutions in the wells was measured on a microtiter plate reader set on 540 nm wavelength.
Assays with normal vaginal fluid supernatant (NVS) present: The procedure of the preceding paragraph was followed, except that 10 μL of diluted NVS was added to the wells in place of the 10 μL of water.

Test [2] has as its system trichomonal hydrolases. Description: Experiment 2: hydrolysis of substrates by trichomonal hydrolases with or without NVS, absorbance 540 nm. The test is classed as biochemical, Trichomonas vaginalis. Particulars: absorbance at 540 nm per method; for Color Scores: Trichomonal hydrolases + NVS: 10% NVS. The protocol: Substrate solutions containing 8 mM of one of the four substrates (ZRR-MNA, BLRR-AMC, BLKR-AMC, ZKKR-AMC) in one of the two buffers (acetate, TRIS) were prepared by mixing 4 μL 100 mM substrate with 6 μL 6.3 mM L-cysteine, 14 μL 200 mM buffer and 26 μL water. Assays of trichomonal hydrolase activity, with or without the addition of NVS, were performed in 200 μL microwells. In one set of microwells, 10 μL of each substrate/buffer combination was mixed with 10 μL of undiluted trichomonal hydrolases. In a second set of microwells, 10 μL of each substrate/buffer combination was mixed with 10 μL of a mixture of 90% v/v trichomonal hydrolases and 10% NVS. Fifteen minutes later, 50 μL of indicator solution was added to each well. After another fifteen minutes, the absorbance of each solution in the wells was measured on a microtiter plate reader set on 540 nm wavelength.

Test [3] concerns hydrolases present in whole normal vaginal fluid. In words: Experiment 2: hydrolysis of substrates by whole normal vaginal fluid, visual color score. The test is classed as biochemical, human. Also noted: key: 0: Yellow; 1: Peach; 2: Orange; 3: Light to medium pink; 4: Dark pink or red; 5: Fuchsia; 6: Purple. Particulars: visual 0-6 scale. The protocol:
Due to the partial opacity of cells and other particulate matter in whole vaginal fluid, assays of hydrolase activity present in whole vaginal fluid were performed in 20 μL conical microwells and scored visually. The vaginal fluid from a single normal, uninfected donor was agitated to resuspend the particulate matter, and 2 μL aliquots of the vaginal fluid were mixed with 2 μL of each substrate/buffer combination. To retard evaporation from the wells, water was pipetted into the mini-tray adjacent to the wells prior to replacing the tray cover. Fifteen minutes later, 2 μL of indicator solution was added to each well. After another fifteen minutes, the color in each well was visually scored in 0.5-unit increments using the 0-6 scale presented in Table 2.1.

Test [4] concerns trichomonal hydrolases. Description: Experiment 13: hydrolysis of peptide substrates by trichomonal hydrolases at low pH, no vaginal fluid. It is filed as biochemical, Trichomonas vaginalis. Also on record: key: −: No red color produced; +: Clearly visible red color produced; ++: Moderately intense red color produced; +++: Very intense red color produced. The settings on record: without vaginal fluid; threonine buffer pH 2.4; 2 mM substrate solution; 10 min 25° C.; Fast Garnet. An outline of the steps:
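Peptide substrates incubated in duplicate for 10 min at 25° C. with trichomonal hydrolase diluted 1:9 in 2 mM L-cysteine; negative controls received L-cysteine alone. SDS/acetate and Fast Garnet added, and color visually scored after 5 min on a color scale.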

Test [5] concerns trichomonal hydrolases. In words: Experiment 13: hydrolysis of peptide substrates by trichomonal hydrolases at low pH in vaginal fluid supernatant. It is filed as biochemical, Trichomonas vaginalis. Also noted: key: −: No red color produced; +: Clearly visible red color produced; ++: Moderately intense red color produced; +++: Very intense red color produced. Particulars: Fast Garnet. The protocol: Forty μL of each substrate was pipetted into duplicate wells of a microtiter plate. The plate was covered with tape, placed into a 25° C. incubator, and allowed to warm. A diluted enzyme mixture was prepared by mixing one part (v/v) freshly-thawed trichomonal hydrolase solution to nine parts 2 mM L-cysteine solution. Forty μL of this mixture was added to one well of each pair of duplicate wells. For negative controls, 40 μL of 2 mM L-cysteine was added to the second well in each pair of duplicate wells. The plate was returned to the incubator and incubated for ten minutes. Forty μL of SDS/acetate solution was added to each well, followed by 40 μL of Fast Garnet solution. The intensity of color that developed in each well after five minutes was visually scored using the color scale presented in Table 13.1.
Of the nine substrates hydrolyzed by trichomonal hydrolases to produce an intense pink color (scoring ++ or +++) in the absence of vaginal fluid supernatant, only four produced intense pink color when vaginal fluid supernatant was present.

The subject of test [6] is non-trichomonal hydrolases present in normal vaginal fluid supernatants. Description: Experiment 6 part 1: inhibition of non-trichomonal hydrolases in filtered normal vaginal fluid. It is filed as biochemical, human. Also noted: key: 0: Yellow; 1: Peach; 2: Orange; 3: Light to medium pink; 4: Dark pink or red; 5: Fuchsia; 6: Purple. Particulars: uninfected, ZRR-MNA, 20 μg/mL antipain or 1 mM chymostatin. The protocol:
(§1) Substrate/inhibitor combinations were prepared by mixing 4 μL of 100 mM ZRR-MNA, 20 μL of 1M HEPES buffer, 56 μL of deionized water, and 20 μL of either antipain, chymostatin, or deionized water. Filtered vaginal fluid was prepared from each specimen as follows: the swab was placed in a cuvette containing 200 μL of diluent and the swab was rotated in the diluent to thoroughly mix the swab contents into the diluent. The swab was removed, the swab head was broken off into a microfuge tube, and the liquid remaining in the swab head was forced out by centrifugation. The fluid extracted from the swab was combined with the liquid in the cuvette, and the total volume of fluid was filtered using a centrifuge filter unit to remove particulate matter.
(§2) For each specimen, 4 μL of vaginal fluid filtrate was mixed with 4 μL of each of the three substrate/inhibitor combinations in separate microwells; one well contained 20 μg/mL antipain, one contained 1 mM chymostatin, and one had no inhibitor. After ten minutes, 4 μL of color developer solution was added to each well.

Test [7] has as its system trichomonal hydrolases. Description: Experiment 6 part 2: inhibition of trichomonal hydrolases added to filtered vaginal fluid. It is filed as biochemical, Trichomonas vaginalis. Also on record: key: 0: Yellow; 1: Peach; 2: Orange; 3: Light to medium pink; 4: Dark pink or red; 5: Fuchsia; 6: Purple. Particulars: ZRR-MNA, 20 μg/mL antipain or 1 mM chymostatin. The protocol:
as §1, §2
Trichomonal hydrolases were added to each of the filtered vaginal fluid specimens—10 μL of trichomonal hydrolase preparation added to 90 μL vaginal fluid filtrate—and the above experiment was repeated.

The structures appear in SMILES notation.

On to `COc1cc(NC(=O)[C@H](CCCN=C(N)N)NC(=O)[C@H](CCCN=C(N)N)NC(=O)OCc2ccccc2)cc2ccccc12` [ZRR-MNA, CBZ-Arg-Arg-MNA], for which, in the test on trichomonal hydrolases [1] (pH 8 TRIS buffer, 0.403/0.667), the “color production relative to that observed when vaginal fluid was not present” value stood at 60%. The “Absorbance Readings” value in the test with trichomonal hydrolases [1] (with vaginal fluid supernatant, Acetate pH 5.1) turned out to be 0.082; in the test on trichomonal hydrolases [1] (with vaginal fluid supernatant, Borate pH 9.2), 0.089; in the test on trichomonal hydrolases [1] (with vaginal fluid supernatant, Gly-gly pH 2.8) it was 0.085; with trichomonal hydrolases [1] (with vaginal fluid supernatant, HEPES pH 7.5), 0.386; in the test with trichomonal hydrolases [1] (with vaginal fluid supernatant, MOPS pH 7.0), 0.313; with trichomonal hydrolases [1] (with vaginal fluid supernatant, TRIS pH 8.0), 0.403. Besides, the “Absorbance Readings” value in the test with trichomonal hydrolases [1] (without vaginal fluid supernatant, Acetate pH 5.1) worked out at 0.792; in the test on trichomonal hydrolases [1] (without vaginal fluid supernatant, Borate pH 9.2), 0.172; in the test on trichomonal hydrolases [1] (without vaginal fluid supernatant, Gly-gly pH 2.8), 0.631; in the test with trichomonal hydrolases [1] (without vaginal fluid supernatant, HEPES pH 7.5), 0.738; in the test with trichomonal hydrolases [1] (without vaginal fluid supernatant, MOPS pH 7.0), 0.638; in the test with trichomonal hydrolases [1] (without vaginal fluid supernatant, TRIS pH 8.0) it was 0.667. Also, the “Color Scores: Trichomonal hydrolases + NVS” value in the test with trichomonal hydrolases [2] (pH 5 acetate) is recorded as 0.068; in the test on trichomonal hydrolases [2] (pH 8 TRIS), 0.182. For the same compound, the “Color Scores: Trichomonal hydrolases” value was found to be 0.420 in the test with trichomonal hydrolases [2] (pH 5 acetate) and 0.385 with trichomonal hydrolases [2] (pH 8 TRIS). The “Color Scores: Whole normal vaginal fluid” value in test [3] (pH 5 acetate) was 3; in test [3] (pH 8 TRIS) it was 4. The “Color Score” value in the test with trichomonal hydrolases [4] was “++”; in the test with trichomonal hydrolases [5], “+”.
Turning to `CC(C)C[C@H](NC(=O)[C@@H](NC(=O)N[C@@H](Cc1ccccc1)C(=O)O)[C@@H]1CCN=C(N)N1)C(=O)N[C@H](C=O)Cc1ccccc1` [Chymostatin, chymostatin], the “Hydrolase activity color score with inhibitor” value is given as 0 in test [6] (Donor A); 0 in test [6] (Donor B); 0 in test [6] (Donor C); 2 in test [6] (Donor D); 0 in test [6] (Donor E); 0 in test [6] (Donor F). Further, the “Hydrolase activity color score with inhibitor” value was 3.5 in the test on trichomonal hydrolases [7] (Donor A filtrate supplemented with trichomonal hydrolases); 3.5 with trichomonal hydrolases [7] (Donor B filtrate supplemented with trichomonal hydrolases); 3.5 in the test on trichomonal hydrolases [7] (Donor C filtrate supplemented with trichomonal hydrolases); 4 in the test on trichomonal hydrolases [7] (Donor D filtrate supplemented with trichomonal hydrolases); 3 in the test with trichomonal hydrolases [7] (Donor E filtrate supplemented with trichomonal hydrolases); 3 in the test with trichomonal hydrolases [7] (Donor F filtrate supplemented with trichomonal hydrolases).
